One series has as its system guinea pig skin. Briefly: continuous irritative test of guinea pig skin (Draize method). The format is in vivo, guinea pig (Hartley series). Details: key: sum of erythema (0-4) + edema (0-4) scores; max 8. As for the experimental part:
Each left and right two spots (4 spots/head) of applying parts having a frame of 2 cm x 2 cm were provided on the back of a shaved guinea pig (Hartley series, 7 weeks of age, female, N = 10), and each 50 µL of an ethanol/propylene glycol (7 : 3) solution containing 0.5 % of the respective acyl glucosamine derivatives shown in the following Table 1 was applied once a day on the respective frames.
A skin irritative score after application for 3 days straight was evaluated according to the following evaluation criteria (Draize method). The above irritative score was shown by the total points (full marks: 8 points) of erythema and edema.
• Erythema: • Evaluation point • 0: no erythema • 1: very weak erythema • 2: clear erythema • 3: middle to strong erythema • 4: very strong erythema to crust
• Evaluation point • 0: no edema • 1: very slight edema formation • 2: slight edema formation • 3: middle edema formation • 4: strong edema formation

The nature of series [1]: solubility in the ethanol/propylene glycol (7 : 3) solvent (Japanese Pharmacopoeia criteria). Conditions: organic solvent or mixture, 20°C, within 30 minutes, amount of solvent for 1 g or 1 ml of solute. It counts as physicochemical.
The test system of series [2] is skin roughness in the inside of a forearm formed with 10 % SDS solution. Put plainly: skin roughness-improving test (SDS-induced roughness, stratum corneum conductance). It counts as in vivo, human being. Conditions: hydrophilic ointment with 0.05 %, twice a day, 3 days later; conductance relative to ointment with no tested substance = 100. As for the experimental part:
The skin roughness-improving degree observed 3 days later after application was evaluated using a change in a stratum corneum water content as an index. The stratum corneum water content is measured in terms of a conductance (µS). […] Skin roughness-improving rate (%) = [(conductance observed when applying the ointment blended with the tested substance)/(conductance observed when applying the ointment blended with no tested substance)] × 100 [formula]

For series [3], the system named is pigmentation on the backs of color guinea pigs irradiated with UV rays. Briefly: whitening evaluation on UV-induced pigmentation. It counts as in vivo. Conditions: 30 µL of 0.05 % in ethanol/propylene glycol (7 : 3), once a day, five times a week, 4 weeks; visual change in pigmentation. An excerpt: Back body hair of color guinea pigs were shaved by means of a hair clipper and a shaver, and they were irradiated with UV rays once a day, 4 times a week and 8 times in total, whereby 4 parts of pigmentation having an area of about 2.25 cm^2 were formed on the backs of the respective guinea pigs.

In series [4] the test system is wrinkles of the back skin of hairless mice irradiated with UVB. Briefly: wrinkle-improving test in UVB-irradiated hairless mice. The format is in vivo, hairless mice (hos: HR-1). Conditions: 100 µL of 0.05 % in ethanol/propylene glycol (7 : 3), once a day, five times a week, 8 weeks, after 10 weeks UVB 50 mJ/cm^2; visual score relative to control group. As for the experimental part: Evaluation point 1: all fine striations along the spine are not observed; a few shallow and coarse wrinkles run perpendicularly to the head-to-tail direction; and the striations appear or disappear with the motion of the mouse. […] The respective bodies were evaluated by an evaluation point of a 0.5 unit to calculate an average point for the respective groups, and the wrinkle-improving rate was calculated for the respective groups according to the following equation (II). Wrinkle-improving rate (%) = [(average value of the control group-average value of a glucosamine derivative-applied group)/(average value of the control group)] × 100 [formula]

The subject of series [5] is texture of the back skin of hairless mice irradiated with UVB. Put plainly: coarse texture-improving test in UVB-irradiated hairless mice (skin replica). The format is in vivo, hairless mice (hos: HR-1). Conditions: 100 µL of 0.05 % in ethanol/propylene glycol (7 : 3), five times a week, 4 weeks, after 6 weeks UVB 40 mJ/cm^2; texture intersection points relative to start of test; control 24. An excerpt:
The enlarged photographs of the respective replicas were taken through a macro lens (magnification: four times), and the photographs were used to evaluate "coarsening of the texture". The coarseness of the texture was defined by a "number of texture intersection point", wherein a point in which three or more sulci cutis are joined is counted as one intersection point, and the number of the texture intersection points present in a square of 1 cm x 1 cm was counted on the replica photograph. An average point for the respective groups was calculated, and the texture-improving rate was calculated according to the following equation (III). Table 4. Texture-improving rate (%) = [(number of texture intersection point after irradiating with UV or after application)/(number of texture intersection point at the time of starting the test)] × 100 [formula]

The next series deals with acnes of acne patients. Briefly: acne-improvement evaluation with an essence for acne. The format is in vivo. Conditions: essence with 0.05 %, a month later; for Evaluation ×: number of subjects rated × : worsened; for Evaluation Δ: number of subjects rated Δ : no change; for Evaluation ⊚: number of subjects rated ⊚ : notably improved, several times a day; for Evaluation ○: number of subjects rated ○ : improved; for Acne treating effect: subjects rated ○ or ⊚. As for the experimental part: Prepared was an essence for acne shown in the following composition example in which 0.05 % of various acyl glucosamine derivatives shown in the following Table 6 was blended. An essence which was not blended with an acyl glucosamine derivative was prepared as a control.

Where [6] appears, read: Table 2, by stereoisomer ratio, 0.5 % in ethanol/propylene glycol (7 : 3) once a day, 3 days straight, full marks 8.
The mark [7] stands for this setting: Table 1, 50 µL of 0.5 % in ethanol/propylene glycol (7 : 3) once a day, after 3 days straight, total points of erythema and edema, full marks 8, N = 10.

Here are results for 17 compounds from patent EP1941863A2, “External preparation composition” (Lion Corporation, priority 2002, dated 2004).

As a reminder, the solubility is the dissolved amount per volume that the medium holds.

Converted amounts (≈) assume the structure as drawn.

On to “1,3,4,6-tetra-O-acetyl-N-retinoyl-D-glucosamine”, for which the Draize score in the series on guinea pig skin (setting [6]) amounted to 0.0.

Consider `CC(=O)OC[C@H]1OC(OC(C)=O)[C@H](NC(=O)/C=C(C)/C=C/C=C(C)/C=C/C2=C(C)CCCC2(C)C)[C@@H](OC(C)=O)[C@@H]1OC(C)=O` (single isomer, unassigned) [1,3,4,6-tetra-O-acetyl-N-retinoyl-D-glucosamine], for which, in the series with guinea pig skin (setting [6]), the Draize score worked out at 0.0. The solubility at 0.5 h in series [1] fell in the range of 1000 to 10000 µg/mL (≈ 1.59 to 15.9 mM).

Take `CC(=O)OC[C@H]1OC(OC(C)=O)[C@H](NC(=O)/C=C(C)/C=C/C=C(C)/C=C/C2=C(C)CCCC2(C)C)[C@@H](OC(C)=O)[C@@H]1OC(C)=O` (stereo partly drawn) [1,3,4,6-tetra-O-acetyl-N-retinoyl-D-glucosamine]: the Draize score in the series on guinea pig skin (setting [7]) came to 0.0.

In series [2], `CCCCCCCCCCCCOC(=O)N[C@H]1C(O)O[C@H](CO)[C@@H](O)[C@@H]1O` (stereo partly drawn) [N-dodecyloxycarbonyl-D-glucosamine] gave a Skin roughness-improving rate of 183%. In series [3], the Whitening-improving effect entry is “+++”.

On to `CC(C)CCCCCCCCCCCCCCC(=O)N[C@H]1C(O)O[C@H](CO)[C@@H](O)[C@@H]1O` (stereo partly drawn) [N-isostearoyl-D-glucosamine], for which, in series [4], the Wrinkle-improving rate was 80%. In addition, the Texture-improving rate in series [5] is given as 72%. In addition, the Draize score with guinea pig skin (setting [7]) came out at 0.1. In series [2], this compound returned a Skin roughness-improving rate of 136%. Also, in the series on acnes of acne patients, the “Evaluation ×” value stood at 0, the “Evaluation Δ” value was 2, the “Evaluation ⊚” value turned out to be 0 and the “Evaluation ○” value was 3. The compound also had an Acne treating effect with acnes of acne patients of 60 percentage. Also, the Whitening-improving effect entry in series [3] is “+”.

Consider `CCCCCCCCCCCC(=O)N[C@H]1C(O)O[C@H](CO)[C@@H](O)[C@@H]1O` (stereo partly drawn) [N-lauroyl-D-glucosamine], for which the Wrinkle-improving rate in series [4] was 78%. In series [5], the Texture-improving rate was found to be 87%. Moreover, in the series on guinea pig skin (setting [7]), the Draize score is reported as 0.1. The Skin roughness-improving rate in series [2] turned out to be 114%. In the series on acnes of acne patients, the “Evaluation ×” value came out at 1, the “Evaluation Δ” value worked out at 1, the “Evaluation ⊚” value is 0 and the “Evaluation ○” value worked out at 1. In the series on acnes of acne patients, this compound had an Acne treating effect of 33 percentage. The Whitening-improving effect entry in series [3] was “+”.

With `CCCCC/C=C\C/C=C\CCCCCCCC(=O)N[C@H]1C(O)O[C@H](CO)[C@@H](O)[C@@H]1O` (stereo partly drawn) [N-linoleoyl-D-glucosamine], in series [4], the Wrinkle-improving rate is 62%. This compound also yielded a Texture-improving rate in series [5] of 58%. Besides, the Draize score in the series on guinea pig skin (setting [7]) was found to be 0.3. The same compound showed a Skin roughness-improving rate in series [2] of 115%. In addition, in the series on acnes of acne patients, the “Evaluation ×” value is recorded as 1, the “Evaluation Δ” value was 3, the “Evaluation ⊚” value came out at 0 and the “Evaluation ○” value is 1. Also, in the series with acnes of acne patients, the Acne treating effect was found to be 20 percentage. Besides, the Whitening-improving effect result in series [3] is “++”.

Turning to `CCCCCCCC/C=C\CCCCCCCC(=O)N[C@H]1C(O)O[C@H](CO)[C@@H](O)[C@@H]1O` (stereo partly drawn) [N-oleoyl-D-glucosamine], in series [4], the Wrinkle-improving rate is 65%. In addition, the Texture-improving rate in series [5] is listed as 59%. The Draize score in the series on guinea pig skin (setting [7]) is 0.2. The same compound returned a Skin roughness-improving rate in series [2] of 114%. In addition, in the series on acnes of acne patients, the “Evaluation ×” value amounted to 0, the “Evaluation Δ” value came to 2, the “Evaluation ⊚” value is given as 0 and the “Evaluation ○” value is reported as 3. The Acne treating effect in the series on acnes of acne patients worked out at 60 percentage. Moreover, the Whitening-improving effect result in series [3] is recorded as “+++”.

In the case of `CC1=C(/C=C/C(C)=C/C=C/C(C)=C/C(=O)N[C@H]2C(O)O[C@H](CO)[C@@H](O)[C@@H]2O)C(C)(C)CCC1` [N-retinoyl-D-glucosamine (cis isomer/trans isomer = 0/100), N-retinoyl-D-glucosamine], the Draize score in the series with guinea pig skin (setting [6]) is 0.0. Moreover, in series [1], the solubility at 0.5 h was 1000 to 10000 µg/mL (≈ 2.17 to 21.7 mM).

With `CC1=C(/C=C/C(C)=C/C=C/C(C)=C/C(=O)O)C(C)(C)CCC1` [Retinoic acid, reference compound], the Draize score with guinea pig skin (setting [7]) was determined as 8.0.

On to “N-POE(2)hexadecyletheroxycarbonyl-D-glucosamine”, for which the Wrinkle-improving rate in series [4] came out at 72%. The Texture-improving rate in series [5] is 89%. Besides, in the series on guinea pig skin (guinea pig, in vivo), the Draize score worked out at 0.1. The compound also displayed a Skin roughness-improving rate in series [2] of 139%. For the same compound, in the series on acnes of acne patients, the “Evaluation ×” value was 0, the “Evaluation Δ” value turned out to be 2, the “Evaluation ⊚” value is recorded as 0 and the “Evaluation ○” value came out at 3. The compound further returned an Acne treating effect in the series on acnes of acne patients of 60 percentage. Moreover, the Whitening-improving effect entry in series [3] was “++”.

As to “N-POE(5)octadecyletheroxycarbonyl-D-glucosamine”, the Wrinkle-improving rate in series [4] was 73%. For the same compound, in series [5], the Texture-improving rate amounted to 92%. Moreover, the Draize score with guinea pig skin (guinea pig, in vivo) is on record as 0.2. In series [2], the Skin roughness-improving rate came to 128%. Further, in the series with acnes of acne patients, the “Evaluation ×” value is 0, the “Evaluation Δ” value was found to be 3, the “Evaluation ⊚” value stood at 0 and the “Evaluation ○” value is 2. Also, the Acne treating effect in the series with acnes of acne patients came to 40 percentage. Further, the Whitening-improving effect result in series [3] is listed as “++”.

Turning to “N-POE(10)docosyletheroxycarbonyl-D-glucosamine”, in series [4], the Wrinkle-improving rate turned out to be 82%. The same compound returned a Texture-improving rate in series [5] of 88%. The Draize score in the series with guinea pig skin (guinea pig, in vivo) was found to be 0.1. The compound further registered a Skin roughness-improving rate in series [2] of 138%. For the same compound, in the series with acnes of acne patients, the “Evaluation ×” value is 0, the “Evaluation Δ” value is given as 3, the “Evaluation ⊚” value was 0 and the “Evaluation ○” value came out at 2. In addition, in the series on acnes of acne patients, the Acne treating effect is given as 40 percentage. In series [3], the Whitening-improving effect result is recorded as “++”.

Turning to N-retinoyl-D-glucosamine, the Wrinkle-improving rate in series [4] amounted to 89%. In series [5], the Texture-improving rate was 75%. Further, the Skin roughness-improving rate in series [2] was determined as 127%. Also, in the series on acnes of acne patients, the “Evaluation ×” value is 0, the “Evaluation Δ” value is listed as 0, the “Evaluation ⊚” value is 4 and the “Evaluation ○” value turned out to be 2. In the series with acnes of acne patients, this compound displayed an Acne treating effect of 100 percentage. For the same compound, the Whitening-improving effect result in series [3] is given as “+++”.

For “N-retinoyl-D-glucosamine [N-retinoyl-D-glucosamine (9-cis isomer/13-cis isomer/trans i]”, the Draize score in the series on guinea pig skin (setting [7]) and with guinea pig skin (setting [6]) was 0.1 in each case.

Turning to “N-retinoyl-D-glucosamine [N-retinoyl-D-glucosamine (9-cis isomer/trans isomer = 0.5/99.5)]”, in the series with guinea pig skin (setting [6]), the Draize score is 0.1.

For the compound “N-retinoyl-D-glucosamine [N-retinoyl-D-glucosamine (13-cis isomer/trans isomer = 0.5/99.5)]”, in the series on guinea pig skin (setting [6]), the Draize score came out at 0.0.
